Measurements published in patent US20110021531A1, “OXAZOLE DERIVATIVES USEFUL AS INHIBITORS OF FAAH” (priority 2009, published 2011).
Where a name gives a salt, the structure may show the parent alone.

What was measured:
[1] = biological target: T1, human FAAH (Fatty Acid Amide Hydrolase) (Homo sapiens, UniProt O00519); test: FAAH enzyme assay on lysate of CHO cells expressing human FAAH; assay type: biochemical
T1 construct: The full length FAAH was subcloned into the mammalian expression vector, pcDEF.neo
T1 sequence (O00519 1-579): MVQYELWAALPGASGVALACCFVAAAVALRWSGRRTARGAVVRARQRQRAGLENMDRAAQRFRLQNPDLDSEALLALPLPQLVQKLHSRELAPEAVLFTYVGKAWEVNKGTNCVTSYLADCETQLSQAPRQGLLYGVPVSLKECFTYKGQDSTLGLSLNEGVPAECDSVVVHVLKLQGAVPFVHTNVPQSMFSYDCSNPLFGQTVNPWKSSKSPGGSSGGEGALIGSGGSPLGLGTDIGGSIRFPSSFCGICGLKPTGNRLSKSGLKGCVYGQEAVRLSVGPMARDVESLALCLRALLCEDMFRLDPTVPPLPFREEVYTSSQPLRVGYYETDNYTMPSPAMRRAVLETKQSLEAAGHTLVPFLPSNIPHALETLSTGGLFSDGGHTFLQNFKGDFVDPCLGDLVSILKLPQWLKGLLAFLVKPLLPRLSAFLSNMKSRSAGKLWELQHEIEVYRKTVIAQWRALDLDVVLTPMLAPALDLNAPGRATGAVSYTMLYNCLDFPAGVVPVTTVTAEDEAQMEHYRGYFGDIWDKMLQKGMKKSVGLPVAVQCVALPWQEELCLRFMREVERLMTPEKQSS
Text: (§1) To assist in assay development stable cell lines for human, murine and rat full length FAAH were developed. Human FAAH cDNA (Accession No: NM_001441.1) was purchased from Origene (Rockville, Md.). The full length FAAH was subcloned into the mammalian expression vector, pcDEF.neo, using XbaI and EcoRI restriction sites and used for stable cell line generation.
CHO cells expressing FAAH were used to prepare either crude cell lysate or microsome fractions. To harvest cells, tissue culture media was decanted, the monolayer washed three times with Ca^++Mg^++ free PBS and cells recovered after […] in enzyme free dissociation media (Millipore Corp, Billerica, Mass.). Cells were collected by centrifuging at 2000 rpm for 15 min. and the cell pellet re-suspended with 50 mM HEPES (pH 7.4) containing 1 mM EDTA and the protease inhibitors aprotinin (1 mg/ml) and leupeptin (100 μM). The suspension was sonicated at 4° C. and the cell lysate recovered after centrifuging at 12,000×g (14,600 rpm, SS34 rotor) for 20 min at 4° C. to form a crude pellet of cell debris, nuclei, peroxisomes, lysosomes, and mitochondria; the supernatant or cell lysate was used for FAAH enzyme assay. In some cases, microsomes fractions enriched in FAAH were prepared by centrifuging the cell lysate further at 27,000 rpm (100,000×g) in SW28 rotor for 50 minutes at 4° C. The pellet containing FAAH-enriched microsomes was re-suspend in 50 mM HEPES, (pH 7.4) 1 mM EDTA, and any remaining DNA sheared by passage of material through a 23 gauge needle and aliquots of enzyme were store at −80° C. prior to use.
(§2) (American Radiolabeled Chemicals; 1 mCi/ml) with FAAH (Life Sciences (1995), 56, 1999-2005 and Journal of Pharmacology and Experimented Therapeutics (1997), 283, 729-734), Analytical. Biochemistry (2003), 318, 270-5. In addition, routine assays were performed monitoring hydrolysis of arachidonyl-7-amino-4-methylcoumarin amide (AAMCA) by following increase in fluorescence upon release of 7-amino 4-methyl coumarin (λEX=355 nm, (λEM=460 nm). Analytical. Biochemistry (2005). 343, 143-51
(§3) Assays are performed on either cell lysate or microsome fractions prepared as described or in whole cell format employing either the fluorescent substrate AAMCA (Cayman chemical, Ann Arbor, Mich.,) or ^3H-anandmaide ([ETHANOLAMINE-1-3H]American Radiolabeled Chemicals; 1 mCi/ml). The cell lysate or microsome assay is performed in Costar black wall, clear bottom plates by adding FAAH_CF10 (whole cell, cell lysate or microsome) in assay buffer (50 mM Phosphate, pH 8.0, 1 mM EDTA, 200 mM KCl, 0.2% glycerol, 0.1% fatty acid free BSA) to each well, followed by either DMSO or compound and allowed to incubate at 22-25° C. for fifteen minutes. AAMCA substrate was used to achieve a final concentration of 1 μM and reaction allowed to proceed at room temperature for 1-3 hours. Fluorescent release as a measure of FAAH activity was monitored by reading the plate in a CytoFluor Multiplate Reader (Ex: […]). Whole cell assay is conducted with cells harvested after rinsing tissue culture flasks three times with Ca^++Mg^++ free PBS, incubating for 10 min in Enzyme free dissociation media and centrifuging for 5 minutes at 1,000 rpm in table top centrifuge. Cells are resuspended in assay buffer at desired cell number in (4×10^4 cells/assay in 96-well format; 1×10^4 cells/assay in 384-well format) and assayed as described.
Alternatively, assays are performed using anandamide [ethanolamine 1-^3H] (specific activity of 10 Ci/mmol) diluted with cold anandamide to achieve a final assay concentration of 1 μM anandamide (˜50,000 cpm). Enzyme (CHO cell lysate, brain or liver homogenate) is incubated in assay buffer (50 mM Phosphate, pH 8.0, 1 mM EDTA, 200 mM KCl, 0.2% glycerol, 0.1% fatty acid free BSA) with inhibitor at 25° C. for 30 minutes. The reaction was terminated by addition of 2 volumes of chloroform:methanol (1:1) and mixed by vortexing. […]

[2] = biological target: T1, human FAAH (Fatty Acid Amide Hydrolase); test: FAAH whole cell assay, CHO cells expressing human FAAH; assay type: cell-based
Text: as §1
(§4) Murine (accession number NM_010173) and Rat FAAH (accession number NM_024132) was amplified by reverse transcriptase polymerase chain reaction (RT-PCR) from brain cDNA (BD Biosciences, San Jose, Calif.) using primers 1 and 2 or primers 1 and 3 respectively (see Table). The resulting PCR product was ligated into pCR4 TOPO and DNA sequence confirmed. The full length murine FAAH was subcloned into the mammalian expression vector, pcDEFneo using either EcoRI (murine) or KpnI and EcoRI (rat) restriction sites. Chinese hamster ovary cells (CHO) were transfected following manufacturers protocol (AMAXA). Forty eight hours post transfection, cells were trypsinized and transferred to 96 well plates in Iscove's DMEM media supplemented with 2 mM Glutamine, 10% fetal calf serum, 1 mg/ml geneticin and HT Supplement (0.1 mM sodium hypoxanthine, 0.016 mM thymidine) in order to isolate single clones. Following selection in geneticin, individual clones were selected and FAAH activity was assessed using a whole cell fluorescent anandamide assay, modified from Ramarao et al (2005). Following removal of tissue culture media cells were dislodged following addition of Cellstripper (Mediatech, Inc. Manassas, Va.) and transferred to 96 well black clear bottom assay plate, centrifuged at 1,000 rpm for 3 mins and media removed and replaced with assay buffer (50 mM Iris pH8.0, 1 mM EDTA, 0.1% fatty acid free BSA). The reaction was initiated by addition of fluorescent substrate, AMC Arachidonoyl Amide (Cayman Chemical, Ann Arbor, Mich.) to 1 μM and reaction allowed to proceed for 2 hours at room temperature. Release of fluorescence was monitored in a CytoFluor Multiplate Reader. Cells expressing the highest amount of FAAH activity were selected for study with FAAH inhibitors.
as §2, §3

[3] = biological target: T2, rat FAAH (Fatty Acid Amide Hydrolase) (Rattus norvegicus, UniProt P97612); test: FAAH whole cell assay, CHO cells expressing rat FAAH; assay type: cell-based
T2 sequence (P97612 1-579): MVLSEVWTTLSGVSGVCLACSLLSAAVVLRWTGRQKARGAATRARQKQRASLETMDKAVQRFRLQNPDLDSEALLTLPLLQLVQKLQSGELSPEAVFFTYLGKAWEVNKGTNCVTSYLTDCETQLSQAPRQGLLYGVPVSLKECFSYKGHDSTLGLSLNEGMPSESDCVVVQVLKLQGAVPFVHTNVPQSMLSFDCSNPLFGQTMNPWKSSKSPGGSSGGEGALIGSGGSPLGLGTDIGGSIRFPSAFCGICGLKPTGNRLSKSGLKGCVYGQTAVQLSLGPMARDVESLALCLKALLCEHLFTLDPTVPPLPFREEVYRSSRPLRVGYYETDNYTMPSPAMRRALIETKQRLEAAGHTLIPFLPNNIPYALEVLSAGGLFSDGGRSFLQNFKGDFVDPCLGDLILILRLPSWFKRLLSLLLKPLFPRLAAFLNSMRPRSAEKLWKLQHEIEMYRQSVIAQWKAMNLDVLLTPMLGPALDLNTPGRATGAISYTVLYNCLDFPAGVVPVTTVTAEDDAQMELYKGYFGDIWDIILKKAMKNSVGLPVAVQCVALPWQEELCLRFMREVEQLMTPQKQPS
Text: as §1, §4, §2, §3

| IC50 [1] | IC50 [2] | IC50 [3] | Structure (SMILES) |
| --- | --- | --- | --- |
| 17 nM | 133 nM | 63 nM | CC(C)(O)c1ccc(-c2nc(-c3ccc(F)cc3)oc2Sc2ccc(Cl)cn2)nn1 [Ex 96, 2-(6-{5-[(5-Chloropyridin-2-yl)sulfanyl]-2-(4-fluorophenyl)-1,3-oxazol-4-yl}pyridazin-3-yl)propan-2-ol] |
| 161 nM | 337 nM | 39 nM | CC(C)(O)c1csc(-c2nc(-c3ccc(F)cc3)oc2Sc2ccc(Cl)cn2)n1 [Ex 100, 2-(2-{5-[(5-Chloropyridin-2-yl)sulfanyl]-2-(4-fluorophenyl)-1,3-oxazol-4-yl}-1,3-thiazol-4-yl)propan-2-ol] |
| 19 nM | 25 nM | 13 nM | CC(C)(O)c1ccc(-c2nc(-c3ccc(F)cc3)oc2Sc2ccc(Cl)cn2)cn1 [Ex 12, 2-{5-[5-[(5-Chloropyridin-2-yl)thio]-2-(4-fluorophenyl)-1,3-oxazol-4-yl]pyridin-2-yl}propan-2-ol] |
| 8 nM | 37 nM | 34 nM | CC(C)(O)c1ncc(-c2nc(-c3ccc(F)cc3)oc2Sc2ccc(Cl)cn2)cn1 [Ex 74, 2-(5-{5-[(5-Chloropyridin-2-yl)sulfanyl]-2-(4-fluorophenyl)-1,3-oxazol-4-yl}pyrimidin-2-yl)propan-2-ol] |
| 28 nM | 69 nM | 39 nM | CS(=O)(=O)c1ccc(-c2nc(-c3ccc(F)cc3)oc2Sc2ccc(Cl)cn2)cc1 [Ex 78, 5-Chloro-2-({2-(4-fluorophenyl)-4-[4-(methylsulfonyl)phenyl]-1,3-oxazol-5-yl}sulfanyl)pyridine] |
| 23 nM | 71 nM | 44 nM | CC(C)(O)c1cnc(-c2nc(-c3ccc(F)cc3)oc2Sc2ccc(Cl)cn2)cn1 [Ex 3, 2-{5-[5-[(5-Chloropyridin-2-yl)thio]-2-(4-fluorophenyl)-1,3-oxazol-4-yl]pyrazin-2-yl}propan-2-ol] |
| 15 nM | 100 nM | 83 nM | CC(C)(O)c1ccc(-c2nc(-c3ccc(OC(F)(F)F)cc3)oc2Sc2ccc(Cl)cn2)cn1 [Ex 68] |
| 35 nM | 67 nM | 25 nM | CC(C)(O)c1ccc(-c2nc(-c3ccc(F)cc3)oc2Sc2ccc(Cl)cn2)cc1 [Ex 80, 2-(4-{5-[(5-Chloropyridin-2-yl)sulfanyl]-2-(4-fluorophenyl)-1,3-oxazol-4-yl}phenyl)propan-2-ol] |
| 44 nM | 222 nM | 35 nM | CC(C)(O)c1cc(-c2nc(-c3ccc(F)cc3)oc2Sc2ccc(Cl)cn2)on1 [Ex 98, 2-(5-{5-[(5-Chloropyridin-2-yl)sulfanyl]-2-(4-fluorophenyl)-1,3-oxazol-4-yl}isoxazol-3-yl)propan-2-ol] |

Further lines, the compound ahead of its results:

| Structure (SMILES) | IC50 [1] | IC50 [2] | IC50 [3] |
| --- | --- | --- | --- |
| CC(C)(O)c1ccc(-c2nc(-c3ccccc3)oc2Sc2ncc(Cl)cn2)cn1 [Ex 62] | 23 nM | 41 nM | 29 nM |
| CS(=O)(=O)c1ccc(-c2nc(-c3ccc(F)cc3)oc2Sc2ncc(Cl)cn2)cn1 [Ex 107, 5-Chloro-2-({2-(4-fluorophenyl)-4-[6-(methylsulfonyl)pyridin-3-yl]-1,3-oxazol-5-yl}sulfanyl)pyrimidine] | 24 nM | 91 nM | 11 nM |
| CC(C)(O)c1ccc(-c2nc(-c3ccccn3)oc2Sc2ccc(Cl)cn2)cn1 [Ex 51, 2-(5-{5-[(5-chloropyridin-2-yl)thio]-2-pyridin-2-yl-1,3-oxazol-4-yl}pyridin-2-yl)propan-2-ol, trifluoroacetic acid salt] | 26 nM | 148 nM | 107 nM |
| CC(C)(O)c1ccc(-c2nc(-c3ccccn3)oc2Sc2ccc(F)cn2)cn1 [Ex 125] | 93 nM | 2290 nM | 680 nM |
| Cc1cc(F)ccc1-c1nc(-c2ccc(C(C)(C)O)nc2)c(Sc2ccc(Cl)cn2)o1 [Ex 37] | 13 nM | 40 nM | 15 nM |
| Fc1ccc(-c2nc(-c3ccc(-c4ncon4)nc3)c(Sc3ccc(Cl)cn3)o2)cc1 [Ex 71, 5-Chloro-2-({2-(4-fluorophenyl)-4-[6-(1,2,4-oxadiazol-3-yl)pyridin-3-yl]-1,3-oxazol-5-yl}sulfanyl)pyridine] | 10 nM | 30 nM | 14 nM |
